Measurements published in patent publication US20240366598A1, “GLUCOSE-DEPENDENT INSULINOTROPIC POLYPEPTIDE RECEPTOR ANTAGONISTS AND USES THEREOF” (Pfizer Inc., priority 2023, published 2024).
pIC50: −log10 of the molar value.

Each molecule was assayed against T1, human Glucose-dependent Insulinotropic Polypeptide Receptor (hGIPR) (Homo sapiens, UniProt P48546) (assay: Functional in vitro GIPR antagonist potency assay (cAMP HTRF, CHO-K1 cells stably expressing hGIPR, hGIP stimulation at about EC80)). Settings: geometric mean, hGIP at estimated EC80, examples marked ^2: overall geometric mean of multiple forms (including salts) tested.
T1 sequence (P48546 22-466): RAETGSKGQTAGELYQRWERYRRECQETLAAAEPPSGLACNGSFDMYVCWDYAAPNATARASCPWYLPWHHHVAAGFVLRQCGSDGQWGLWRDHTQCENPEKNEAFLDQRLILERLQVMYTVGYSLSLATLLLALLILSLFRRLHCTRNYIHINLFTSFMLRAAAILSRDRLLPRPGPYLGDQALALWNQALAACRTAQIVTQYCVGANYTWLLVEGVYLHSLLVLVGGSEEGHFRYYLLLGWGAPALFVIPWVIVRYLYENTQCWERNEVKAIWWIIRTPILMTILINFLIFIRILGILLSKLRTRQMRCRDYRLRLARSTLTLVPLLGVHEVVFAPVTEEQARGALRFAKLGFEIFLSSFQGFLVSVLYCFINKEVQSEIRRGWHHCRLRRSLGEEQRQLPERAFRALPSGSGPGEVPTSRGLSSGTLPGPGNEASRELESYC
Type: cell-based
Method in brief: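 HTRF quantification of cAMP after stimulation with hGIP at an estimated EC80 for 30 min at 37 °C. Before stimulation, hGIPR-expressing CHO-K1 cells were exposed 2 h to test compound in IBMX-containing buffer, with 0.5% DMSO final. Percent effect is referenced to agonist alone (0%) and to 80 μM of a reference antagonist (100%), and runs required the agonist concentration to fall within the on-the-day EC50–EC90.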

Row | Structure (SMILES) | pIC50
1 | O=C(O)c1ccc(-c2ccc(NC(=O)[C@H]3CCCN3C(=O)Nc3ccc(C(F)(F)F)cc3)cn2)cc1 [Example 22, 4-{5-[(1-{[4-(Trifluoromethyl)phenyl]carbamoyl}-D-prolyl)amino]pyridin-2-yl}benzoic acid] | 7.21
2 | CC(C)c1ccc(NC(=O)N2CCC[C@@H]2C(=O)Nc2ccc(-c3cc(F)c(O)c(F)c3)cc2)cc1 [Example 99, (2R)-N^2-(3′,5′-difluoro-4′-hydroxy[1,1′-biphenyl]-4-yl)-N^1-[4-(propan-2-yl)phenyl]pyrrolidine-1,2-dicarboxamide] | 7.74
3 | CC(C)c1ccc(NC(=O)N2C[C@@H]3C[C@@H]3[C@@H]2C(=O)Nc2ccc(-c3cccc(C(=O)O)c3)cc2)cc1 [Example 159, 4′-{[(1S,2R,5R)-3-{[4-(propan-2-yl)phenyl]carbamoyl}-3-azabicyclo[3.1.0]hexane-2-carbonyl]amino}[1,1′-biphenyl]-3-carboxylic acid] | 6.96
4 | Cc1cc(NC(=O)N2CCC[C@@H]2C(=O)Nc2ccc(-c3ccc(C(=O)O)cc3)cc2)ccc1C1CC1 [Example 144, 4′-({1-[(4-cyclopropyl-3-methylphenyl)carbamoyl]-D-prolyl}amino)[1,1′-biphenyl]-4-carboxylic acid] | 8.21
5 | CC(C)c1ccc(NC(=O)N2CCC[C@@H]2C(=O)Nc2ccc(-c3c(F)ccc(C(=O)O)c3F)cc2)cc1 [Example 80, 2,6-difluoro-4′-[(1-{[4-(propan-2-yl)phenyl]carbamoyl}-D-prolyl)amino][1,1′-biphenyl]-3-carboxylic acid] | 6.40
6 | CC(C)c1ccc(NC(=O)N2CCC[C@@H]2C(=O)Nc2ccc(-c3cccc(O)c3F)cc2)cc1 [Example 66, (2R)-N^2-(2′-fluoro-3′-hydroxy[1,1′-biphenyl]-4-yl)-N^1-[4-(propan-2-yl)phenyl]pyrrolidine-1,2-dicarboxamide] | 6.41
7 | CC(C)c1ccc(NC(=O)N2CCC[C@@H]2C(=O)Nc2ccc(-c3ccc(C(=O)O)nc3)cc2F)cc1 [Example 65, 5-{3-fluoro-4-[(1-{[4-(propan-2-yl)phenyl]carbamoyl}-D-prolyl)amino]phenyl}pyridine-2-carboxylic acid] | 7.89
8 | CC(C)c1ccc(NC(=O)N2C[C@H]3C[C@H]3[C@@H]2C(=O)Nc2ccc(-c3cccc(C(=O)O)c3)cc2)cc1 [Example 154, 4′-{[(1R,2R,5S)-3-{[4-(propan-2-yl)phenyl]carbamoyl}-3-azabicyclo[3.1.0]hexane-2-carbonyl]amino}[1,1′-biphenyl]-3-carboxylic acid] | 7.24

The next lines start with the values.

Row | pIC50 | Structure (SMILES)
9 | 7.29 | O=C(O)c1cccc(-c2ccc(NC(=O)[C@H]3CCCN3C(=O)NCc3ccc(C(F)(F)F)cc3)nc2)c1 [Example 225, 3-(6-{[1-({[4-(trifluoromethyl)phenyl]methyl}carbamoyl)-D-prolyl]amino}pyridin-3-yl)benzoic acid]
10 | 8.15 | O=C(O)c1ccc(-c2ccc(NC(=O)[C@H]3CCCN3C(=O)Nc3ccc(C4CCC4)cc3)cc2)cn1 [Example 211, 5-[4-({1-[(4-cyclobutylphenyl)carbamoyl]-D-prolyl}amino)phenyl]pyridine-2-carboxylic acid]
11 | 7.28 | Cc1cc(NC(=O)N2CCC[C@@H]2C(=O)Nc2ccc3c(n2)CC[C@@H](C(=O)O)C3)ccc1C(F)(F)F (single isomer, unassigned) [Example 227, 2-[(1-{[3-methyl-4-(trifluoromethyl)phenyl]carbamoyl}-D-prolyl)amino]-5,6,7,8-tetrahydroquinoline-6-carboxylic acid, DIAST-2]
12 | 8.34 | CC[C@H]1CCN(C(=O)Nc2ccc(C(C)C)cc2)[C@H]1C(=O)Nc1ccc(-c2ccc(C(=O)O)cc2)cc1 (single isomer, unassigned) [Example 165, 4′-{[(3R)-3-ethyl-1-{[4-(propan-2-yl)phenyl]carbamoyl}-L-prolyl]amino}[1,1′-biphenyl]-4-carboxylic acid or 4′-{[(3S)-3-ethyl-1-{[4-(propan-2-yl)phenyl]carbamoyl}-D-prolyl]amino}[1,1′-biphenyl]-4-carboxylic acid]
